# Experimental data reported in ChEMBL document CHEMBL1151947, “Synthesis, potency, and in vivo evaluation of 2-piperazin-1-ylquinoline analogues as dual serotonin reuptake inhibitors and serotonin 5-HT1A receptor antagonists” (J Med Chem, 2009).
# Key:
# [1] = molecular target: T1, Adrenergic receptor alpha-1 (Rattus norvegicus, UniProt P15823+P23944+P43140); assay: Displacement of [3H]prazosin from alpha1 adrenergic receptor in rat cortical membranes; format: cell membranes, Membrane
# T1 sequence (P15823 whole entry): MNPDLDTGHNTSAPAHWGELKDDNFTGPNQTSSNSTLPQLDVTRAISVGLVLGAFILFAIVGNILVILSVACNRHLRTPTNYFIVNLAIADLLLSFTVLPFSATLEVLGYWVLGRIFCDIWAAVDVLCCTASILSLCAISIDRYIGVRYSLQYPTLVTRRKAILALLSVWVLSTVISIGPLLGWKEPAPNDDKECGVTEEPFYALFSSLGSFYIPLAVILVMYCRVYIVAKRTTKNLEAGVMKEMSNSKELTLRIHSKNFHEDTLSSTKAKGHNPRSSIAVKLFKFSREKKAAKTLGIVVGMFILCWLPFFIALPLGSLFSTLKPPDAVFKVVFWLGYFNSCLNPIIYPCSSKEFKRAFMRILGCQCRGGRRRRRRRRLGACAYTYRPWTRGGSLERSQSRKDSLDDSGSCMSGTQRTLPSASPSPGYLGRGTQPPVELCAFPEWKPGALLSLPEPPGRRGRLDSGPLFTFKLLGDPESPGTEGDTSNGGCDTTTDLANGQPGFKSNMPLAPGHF
# T1 sequence (P23944 whole entry): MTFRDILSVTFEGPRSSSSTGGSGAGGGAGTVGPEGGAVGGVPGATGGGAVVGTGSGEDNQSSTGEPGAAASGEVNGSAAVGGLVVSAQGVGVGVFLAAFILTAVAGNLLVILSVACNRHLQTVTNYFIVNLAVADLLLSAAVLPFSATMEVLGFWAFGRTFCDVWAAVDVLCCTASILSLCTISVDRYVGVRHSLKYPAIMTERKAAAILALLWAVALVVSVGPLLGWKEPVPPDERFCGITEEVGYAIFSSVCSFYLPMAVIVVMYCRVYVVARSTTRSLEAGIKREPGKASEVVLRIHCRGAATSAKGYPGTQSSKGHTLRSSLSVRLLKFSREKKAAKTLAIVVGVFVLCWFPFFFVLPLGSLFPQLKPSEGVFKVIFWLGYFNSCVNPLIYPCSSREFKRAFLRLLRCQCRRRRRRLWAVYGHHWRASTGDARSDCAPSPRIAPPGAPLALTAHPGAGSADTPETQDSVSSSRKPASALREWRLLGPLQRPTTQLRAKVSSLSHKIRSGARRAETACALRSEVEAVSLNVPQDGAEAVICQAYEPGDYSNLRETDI
# T1 sequence (P43140 whole entry): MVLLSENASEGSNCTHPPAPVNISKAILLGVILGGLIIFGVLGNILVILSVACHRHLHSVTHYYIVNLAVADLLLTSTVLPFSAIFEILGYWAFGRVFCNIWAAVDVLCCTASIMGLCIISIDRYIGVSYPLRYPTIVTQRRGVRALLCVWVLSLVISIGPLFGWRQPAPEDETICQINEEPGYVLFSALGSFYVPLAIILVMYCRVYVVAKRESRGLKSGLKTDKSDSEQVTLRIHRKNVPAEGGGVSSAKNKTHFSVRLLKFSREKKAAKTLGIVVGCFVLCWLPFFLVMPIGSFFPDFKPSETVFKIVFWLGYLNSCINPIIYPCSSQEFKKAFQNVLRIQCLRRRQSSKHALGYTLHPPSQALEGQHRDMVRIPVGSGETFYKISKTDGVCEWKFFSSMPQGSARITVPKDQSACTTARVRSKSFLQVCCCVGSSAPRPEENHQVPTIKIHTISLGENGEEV
# D(3) dopamine receptor = D(3) dopamine receptor (Homo sapiens, UniProt P35462); assay: Displacement of [3H]spiperone from human dopamine D3 receptor expressed in CHO cells; format: cell-based
# D(4) dopamine receptor = molecular target: T2, D(4) dopamine receptor (Homo sapiens, UniProt P21917); assay: Displacement of [3H]spiperone from human dopamine D4 receptor expressed in CHO cells; format: cell-based
# T2 sequence (P21917 whole entry): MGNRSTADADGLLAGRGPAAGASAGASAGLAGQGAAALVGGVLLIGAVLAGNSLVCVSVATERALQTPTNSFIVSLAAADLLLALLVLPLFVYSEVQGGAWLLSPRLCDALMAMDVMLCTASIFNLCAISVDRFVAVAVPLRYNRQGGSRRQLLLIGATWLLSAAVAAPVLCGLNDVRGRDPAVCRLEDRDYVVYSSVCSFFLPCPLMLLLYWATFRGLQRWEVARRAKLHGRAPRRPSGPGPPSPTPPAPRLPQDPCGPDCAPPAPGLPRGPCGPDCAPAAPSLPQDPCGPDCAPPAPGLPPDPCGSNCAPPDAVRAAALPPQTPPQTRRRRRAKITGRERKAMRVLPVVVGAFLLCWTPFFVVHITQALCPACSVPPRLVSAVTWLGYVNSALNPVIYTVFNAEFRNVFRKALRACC
# [2] = AUC in rat at 3 mg/kg, po; format: ADME, organism-based; design: dose 3 mg/kg, route oral; details: plasma
# [3] = Oral bioavailability in rat at 3 mg/kg; format: ADME, organism-based; details: in vivo
# [4] = Elimination half life in rat at 10 mg/kg, po; format: ADME, organism-based; design: dose 10 mg/kg, route oral; details: in vivo, read-out: beta t1/2 (converted)
# Rattus norvegicus [5] = assay: Antidepressant activity in rat assessed as increase in extracellular 5HT level in dorsal lateral frontal cortex at 30 mg/kg, po after 3 hrs by microdialysis assay relative to basal level; format: functional
# Rattus norvegicus [6] = assay: Antidepressant activity in po dosed rat assessed as increase in extracellular 5HT level in dorsal lateral frontal cortex after 3 hrs by microdialysis assay; format: functional, organism-based
# Rattus norvegicus [7] = assay: Antidepressant like activity in sc dosed rat resident-intruder model assessed as reduction of aggressive behavior level administered 30 mins prior to test; format: functional
# Cytochrome P450 2D6 = Cytochrome P450 2D6 (Homo sapiens, UniProt P10635); assay: Inhibition of CYP2D6 in human liver microsomes upto100 uM; format: ADME, Microsome
# Cytochrome P450 2C9 = Cytochrome P450 2C9 (Homo sapiens, UniProt P11712); assay: Inhibition of CYP2C9 in human liver microsomes; format: ADME, Microsome
# [8] = molecular target: Sodium-dependent serotonin transporter (Rattus norvegicus, UniProt P31652)
# Description: Displacement of [3H]paroxetine from 5HT transporter in rat cortical membrane
# [9] = molecular target: T3, 5-hydroxytryptamine receptor 1A (Homo sapiens, UniProt P08908)
# T3 sequence (P08908 whole entry): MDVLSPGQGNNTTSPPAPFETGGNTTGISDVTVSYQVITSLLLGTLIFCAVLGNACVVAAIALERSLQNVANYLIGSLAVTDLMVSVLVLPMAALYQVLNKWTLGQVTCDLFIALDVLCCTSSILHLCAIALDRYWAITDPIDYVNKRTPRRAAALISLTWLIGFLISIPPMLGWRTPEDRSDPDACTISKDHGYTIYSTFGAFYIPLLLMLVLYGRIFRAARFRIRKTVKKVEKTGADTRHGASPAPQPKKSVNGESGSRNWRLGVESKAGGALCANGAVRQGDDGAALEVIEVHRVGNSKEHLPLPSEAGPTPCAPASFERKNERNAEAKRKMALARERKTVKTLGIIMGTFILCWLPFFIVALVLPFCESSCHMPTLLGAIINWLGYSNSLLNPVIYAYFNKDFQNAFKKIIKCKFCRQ
# Description: Antagonist activity at human 5HT1A receptor expressed in CHO cells assessed as stimulation of [35S]GTPgammaS binding
# Sequence of Cytochrome P450 2C9 (P11712 whole entry): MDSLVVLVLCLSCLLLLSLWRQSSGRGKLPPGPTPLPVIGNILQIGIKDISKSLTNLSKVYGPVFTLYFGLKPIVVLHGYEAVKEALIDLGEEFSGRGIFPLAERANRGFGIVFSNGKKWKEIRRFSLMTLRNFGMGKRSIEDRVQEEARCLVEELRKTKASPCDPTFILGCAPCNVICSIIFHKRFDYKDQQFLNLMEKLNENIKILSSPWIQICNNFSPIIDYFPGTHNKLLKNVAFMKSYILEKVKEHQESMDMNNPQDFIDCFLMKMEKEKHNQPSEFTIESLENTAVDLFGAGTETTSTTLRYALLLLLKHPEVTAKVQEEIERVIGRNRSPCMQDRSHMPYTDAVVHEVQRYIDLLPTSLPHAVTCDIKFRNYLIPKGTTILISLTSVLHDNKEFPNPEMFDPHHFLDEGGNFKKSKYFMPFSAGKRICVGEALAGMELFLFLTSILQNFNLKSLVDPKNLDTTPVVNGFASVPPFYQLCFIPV
# Sequence of D(3) dopamine receptor (P35462 whole entry): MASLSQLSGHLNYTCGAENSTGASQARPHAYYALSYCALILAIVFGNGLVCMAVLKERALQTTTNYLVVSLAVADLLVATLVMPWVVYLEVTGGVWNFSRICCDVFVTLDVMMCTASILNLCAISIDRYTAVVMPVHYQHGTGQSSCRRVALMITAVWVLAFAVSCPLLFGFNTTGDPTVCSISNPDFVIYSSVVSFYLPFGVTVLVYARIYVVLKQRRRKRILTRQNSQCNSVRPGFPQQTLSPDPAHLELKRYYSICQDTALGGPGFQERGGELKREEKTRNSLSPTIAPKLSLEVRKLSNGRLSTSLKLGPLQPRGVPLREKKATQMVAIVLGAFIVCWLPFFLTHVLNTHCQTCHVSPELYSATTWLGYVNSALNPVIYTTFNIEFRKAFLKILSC
# Sequence of Sodium-dependent serotonin transporter (P31652 whole entry): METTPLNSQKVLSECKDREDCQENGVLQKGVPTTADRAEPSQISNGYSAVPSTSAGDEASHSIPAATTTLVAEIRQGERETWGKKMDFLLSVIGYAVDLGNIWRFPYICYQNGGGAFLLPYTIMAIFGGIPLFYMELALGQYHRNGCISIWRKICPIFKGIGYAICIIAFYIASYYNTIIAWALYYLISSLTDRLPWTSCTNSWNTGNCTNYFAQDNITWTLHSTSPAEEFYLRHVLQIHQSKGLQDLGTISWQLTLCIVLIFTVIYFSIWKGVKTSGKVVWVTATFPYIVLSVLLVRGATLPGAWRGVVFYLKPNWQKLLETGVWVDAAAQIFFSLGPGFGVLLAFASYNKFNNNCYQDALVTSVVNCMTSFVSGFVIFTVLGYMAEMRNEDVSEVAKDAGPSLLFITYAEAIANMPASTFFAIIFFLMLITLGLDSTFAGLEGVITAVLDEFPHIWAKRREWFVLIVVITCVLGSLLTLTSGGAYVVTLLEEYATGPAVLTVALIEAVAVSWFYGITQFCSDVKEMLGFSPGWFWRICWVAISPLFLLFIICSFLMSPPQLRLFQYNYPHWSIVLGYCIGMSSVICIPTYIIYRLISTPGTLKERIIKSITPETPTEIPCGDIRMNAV
# Sequence of Cytochrome P450 2D6 (P10635 whole entry): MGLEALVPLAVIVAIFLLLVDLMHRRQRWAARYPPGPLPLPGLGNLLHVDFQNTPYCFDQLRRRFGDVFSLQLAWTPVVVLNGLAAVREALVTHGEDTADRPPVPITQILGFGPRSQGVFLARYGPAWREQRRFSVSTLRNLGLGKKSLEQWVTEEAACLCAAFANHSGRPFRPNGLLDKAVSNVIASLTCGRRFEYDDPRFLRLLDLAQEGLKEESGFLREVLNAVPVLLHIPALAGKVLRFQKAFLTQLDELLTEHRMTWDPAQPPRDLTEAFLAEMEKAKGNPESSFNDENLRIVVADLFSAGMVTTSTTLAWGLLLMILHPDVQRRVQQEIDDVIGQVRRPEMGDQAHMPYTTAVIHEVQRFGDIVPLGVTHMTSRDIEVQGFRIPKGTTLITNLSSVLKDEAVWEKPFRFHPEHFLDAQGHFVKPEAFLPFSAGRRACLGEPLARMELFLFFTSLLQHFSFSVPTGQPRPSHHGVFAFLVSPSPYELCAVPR
compound,measurement,setting,value
Cc1ccc2c3c(ccc2n1)OC[C@H](CN1CCN(c2ccc4cc(C#N)ccc4n2)CC1)O3,Ki,[1],1110 nM
same,Ki,D(3) dopamine receptor,1320 nM
same,Ki,D(4) dopamine receptor,1420 nM
same,AUC,[2],2320 ng·h/mL
same,bioavailability,[3],61%
same,half-life,[4],3.8 h
same,Activity,Rattus norvegicus [5],71%
same,Activity,Rattus norvegicus [6],Dose-dependent effect
same,Activity,Rattus norvegicus [7],Dose-dependent effect
same,ED50,Rattus norvegicus [7]; read-out: ID50 (the source's name),12.5 mg/kg
same,inhibition (INH),Cytochrome P450 2D6,Not Active
same,IC50,Cytochrome P450 2C9,358000 nM
same,Ki,[8],13.8 nM
same,IC50,[9],102 nM
